# Experimental data as given in patent publication US20260265248A1, “NOVEL PD-L1 INHIBITORS” (AFFIRMA BIOTECH S. L., priority 2023, published 2026).
# Molecular target: T1, PD-1/PD-L1 (Homo sapiens, UniProt Q9NZQ7)
# T1 construct: purchased CisBio
# Assay: PD1-PDL1 HTRF assay
# Conditions: PD-1/PD-L1 homogenous time-resolved fluorescence (HTRF) binding assay; Tag1-PDL1 5 nM, Tag2-PD1 50 nM
# Description: The CisBio HTRF assay kit, purchased from CisBio only, was employed to determine the IC50 values of compounds. The PD1-PDL1 HTRF assay measures the interactions between the two proteins, PD1 and PDL1. The interaction is detected by using anti-Tag1 labeled with Europium (HTRF donor) which binds to PDL1 and anti-Tag2 labeled with XL665 (HTRF acceptor) which binds to PD1. When the two antibodies are in proximity, the excitation of the donor fluorophore results in FRET emission from the acceptor fluorophore. The presence of inhibitors for such an interaction result in reduction of HTRF signal.
# The assay was conducted in 96-well white assay plates. All the reagents, including Tag1-PDL1, Tag2-PD1, Anti-Tag1-PDL1, Anti-Tag2-PD1 were thawed and diluted with PPI Europium Detection buffer to achieve the desired concentration as per the manufacturer's protocol. A 1000 μM stock solution of test inhibitors was prepared in DMSO. The stock solution was diluted in DMSO to prepare 8 concentrations (1000-0.001 μM). These stock solutions were further diluted in PPI Europium detection buffer to prepare 8 working stock solutions (100-0.0001 μM). To the 96-well plate, 2 μL of the test inhibitor working stock solutions were added followed by 4 μL of Tag1-PDL1 (5 nM) and 4 μL of Tag2-PD1 (50 nM). The plate was incubated at room temperature for 15 min. Subsequently, 10 μL of pre-mixed Anti-Tag1-PDL1 and Anti-Tag2-PD1 solution was added. The plate was sealed and incubated at room temperature for 1 h. The HTRF signal was read on Perkin Elmer Envision plate reader using excitation wavelength of 320 nm, emission wavelengths of 620 nm and 665 nm. Results were obtained by calculating the ratio of signal from acceptor at 665 nm to that of signal from donor at 620 nm multiplied by […]. The IC50 values were determined by the Hill equation using GraphPad Prism software.
# T1 sequence (Q9NZQ7 19-238 limits assumed): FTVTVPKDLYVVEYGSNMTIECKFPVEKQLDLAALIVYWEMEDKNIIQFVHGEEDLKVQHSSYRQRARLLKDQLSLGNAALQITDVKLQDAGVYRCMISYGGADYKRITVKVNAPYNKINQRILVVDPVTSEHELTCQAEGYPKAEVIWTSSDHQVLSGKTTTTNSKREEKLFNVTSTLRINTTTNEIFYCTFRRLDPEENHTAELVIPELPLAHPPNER
row,IC50,Compound
1,100 to 1000 nM,"Cc1c(-c2ccc3c(c2)OCCO3)cccc1-c1ccn2c(-c3ccc(CNCCC(=O)O)cc3)nnc2c1 [Example 61, 3-((4-(7-(3-(2,3-dihydrobenzo[b][1,4]dioxin-6-yl)-2-methylphenyl)-[1,2,4]triazolo[4,3-a]pyridin-3-yl)benzyl)amino)propanoic acid]"
2,≤ 10 nM,"Cc1c(-c2ccc(CNCCO)cc2)cccc1-c1cccc(-c2ccn3c(-c4ccc(CN5CCC[C@@H]5C(=O)O)cc4)nnc3c2)c1C [Example 62, (4-(7-(4″-(((2-hydroxyethyl)amino)methyl)-2,2′-dimethyl-[1,1′:3′,1″-terphenyl]-3-yl)-[1,2,4]triazolo[4,3-a]pyridin-3-yl)benzyl)-D-proline]"
3,10 to 100 nM,"Cc1c(-c2ccn3c(-c4ccc(CN5CCC[C@@H]5C(=O)O)cc4)nnc3c2)cccc1-c1cccc(-c2cnc(CNCCO)cn2)c1C [Example 63, (4-(7-(3′-(5-(((2-hydroxyethyl)amino)methyl)pyrazin-2-yl)-2,2′-dimethyl-[1,1′-biphenyl]-3-yl)-[1,2,4]triazolo [4,3-α]pyridin-3-yl)benzyl)-D-proline]"
4,≤ 10 nM,"Cc1c(-c2ccc(CNCCO)cc2)cccc1-c1cccc(-c2ccn3c(-c4ccc(CN5CCC[C@H]5C(=O)O)cc4)nnc3c2)c1C [Example 64, (4-(7-(4″-(((2-hydroxyethyl)amino)methyl)-2,2′-dimethyl-[1,1′:3′,1″-terphenyl]-3-yl)-[1,2,4]triazolo[4,3-α]pyridin-3-yl)benzyl)-L-proline]"
5,10 to 100 nM,"Cc1c(-c2ccc(CNCCO)cc2)cccc1-c1cccc(-c2ccn3c(-c4ccc(CN5CC[C@@H](C(=O)O)C5)cc4)nnc3c2)c1C [Example 65, (R)-1-(4-(7-(4″-(((2-hydroxyethyl)amino)methyl)-2,2′-dimethyl-[1,1′:3′,1″-terphenyl]-3-yl)-[1,2,4]triazolo[4,3-α]pyridin-3-yl)benzyl)pyrrolidine-3-carboxylic acid]"
6,10 to 100 nM,"OCCNCc1ccc(-c2cccc(-c3cccc(-c4ccn5c(-c6ccc(CNCCO)cc6)nnc5c4)c3Cl)c2Cl)cc1 [Example 66, 2-(((2′,2″-dichloro-3″-(3-(4-(((2-hydroxyethyl)amino)methyl)phenyl)-[1,2,4]triazolo[4,3-a]pyridin-7-yl)-[1,1′:3′,1″-terphenyl]-4-yl)methyl)amino)ethan-1-ol]"
7,≤ 10 nM,"O=C(O)[C@H]1CCCN1Cc1ccc(-c2nnc3cc(-c4cccc(-c5cccc(-c6ccc(CNCCO)cc6)c5Cl)c4Cl)ccn23)cc1 [Example 67, (4-(7-(2,2′-dichloro-4″-(((2-hydroxyethyl)amino)methyl)-[1,1′:3′,1″-terphenyl]-3-yl)-[1,2,4]triazolo[4,3-a]pyridin-3-yl)benzyl)-D-proline]"
8,≤ 10 nM,"Cc1c(NC(=O)c2ccc(CNCCO)cn2)cccc1-c1cccc(-c2ccn3c(-c4ccc(CN5CCC[C@@H]5C(=O)O)cc4)nnc3c2)c1C [Example 68, (4-(7-(3′-(5-(((2-hydroxyethyl)amino)methyl)picolinamido)-2,2′-dimethyl-[1,1′-biphenyl]-3-yl)-[1,2,4]triazolo[4,3-a]pyridin-3-yl)benzyl)-D-proline]"
9,≤ 10 nM,"Cc1c(NC(=O)c2ccc(CNCCO)cn2)cccc1-c1cccc(-c2ccn3c(-c4ccc(CN5CCC[C@H]5C(=O)O)cc4)nnc3c2)c1C [Example 69, (4-(7-(31-(5-(((2-hydroxyethyl)amino)methyl)picolinamido)-2,2′-dimethyl-[1,1′-biphenyl]-3-yl)-[1,2,4]triazolo [4,3-α]pyridin-3-yl)benzyl)-L-proline]"
10,≤ 10 nM,"Cc1c(NC(=O)c2ccc(CNCCO)cn2)cccc1-c1cccc(-c2ccn3c(-c4ccc(CNCCO)cc4)nnc3c2)c1C [Example 70, 5-(((2-hydroxyethyl)amino)methyl)-N-(3′-(3-(4-(((2-hydroxyethyl)amino)methyl)phenyl)-[1,2,4]triazolo[4,3-a]pyridin-7-yl)-2,2′-dimethyl-[1,1′-biphenyl]-3-yl)picolinamide]"
11,10 to 100 nM,"Cc1c(NC(=O)c2ccc(CNC[C@H]3CCC(=O)N3)cn2)cccc1-c1cccc(-c2ccn3c(-c4ccc(CNC[C@H]5CCC(=O)N5)cc4)nnc3c2)c1C [Example 71, N-(2,2′-dimethyl-31-(3-(4-(((((R)-5-oxopyrrolidin-2-yl)methyl)amino)methyl)phenyl)-[1,2,4]triazolo[4,3-α]pyridin-7-yl)-[1,1′-biphenyl]-3-yl)-5-(((((R)-5-oxopyrrolidin-2-yl)methyl)amino)methyl)picolinamide]"
12,≤ 10 nM,"COCCNCc1ccc(-c2nnc3cc(-c4cccc(-c5cccc(NC(=O)c6ccc(CNCCO)cn6)c5C)c4C)ccn23)cc1 [Example 72, 5-(((2-hydroxyethyl)amino)methyl)-N-(3′-(3-(4-(((2-methoxyethyl)amino)methyl)phenyl)-[1,2,4]triazolo[4,3-α]pyridin-7-yl)-2,2′-dimethyl-[1,1′-biphenyl]-3-yl)picolinamide]"
13,10 to 100 nM,"Cc1c(-c2ccn3c(-c4ccc(CN5CCC[C@@H]5C(=O)O)cc4)nnc3c2)cccc1-c1cccc(-c2ccn3c(-c4ccc(CN5CCC[C@@H]5C(=O)O)cc4)nnc3c2)c1C [Example 73, (2′R)-((((2,2′-dimethyl-[1,1′-biphenyl]-3,3′-diyl)bis ([1,2,4]triazolo[4,3-ci]pyridine-7,3-diyl))bis(4,1-phenylene))bis(methylene))di-D-proline]"
14,10 to 100 nM,"Cc1c(-c2ccc(CNC[C@@H]3CCC(=O)N3)cc2)cccc1-c1cccc(-c2ccn3c(-c4ccc(CNC[C@@H]5CCC(=O)N5)cc4)nnc3c2)c1C [Example 74, (S)-5-((((2′,2″-dimethyl-3″-(3-(4-(((((S)-5-oxopyrrolidin-2-yl)methyl)amino)methyl)phenyl)-[1,2,4]triazolo[4,3-a]pyridin-7-yl)-[1,1′:3′,1″-terphenyl]-4-yl)methyl)amino)methyl)pyrrolidin-2-one]"
15,10 to 100 nM,"Cc1c(-c2ccc(CNCCO)cc2)cccc1-c1cccc(-c2ccn3c(-c4ccc(CNCCO)cc4)nnc3c2)c1C [Example 75, 2-((4-(7-(4″-(((2-hydroxyethyl)amino)methyl)-2,2′-dimethyl-[1,1′:3′,1″-terphenyl]-3-yl)-[1,2,4]triazolo[4,3-α]pyridin-3-yl)benzyl)amino)ethan-1-ol]"
16,10 to 100 nM,"Cc1c(-c2ccc(CNC[C@H]3CCC(=O)N3)cc2)cccc1-c1cccc(-c2ccn3c(-c4ccc(CNC[C@H]5CCC(=O)N5)cc4)nnc3c2)c1C [Example 76, (R)-5-((((2′,2″-dimethyl-3″-(3-(4-(((((R)-5-oxopyrrolidin-2-yl)methyl)amino)methyl)phenyl)-[1,2,4]triazolo[4,3-α]pyridin-7-yl)-[1,1′:3′,1″-terphenyl]-4-yl)methyl)amino)methyl)pyrrolidin-2-one]"
17,≤ 10 nM,"COc1nc(-c2cccc(-c3cccc(-c4ccn5c(-c6ccc(CNCCO)cc6)nnc5c4)c3C)c2C)ccc1CNCCO [Example 77, 2-((4-(7-(3′-(5-(((2-hydroxyethyl)amino)methyl)-6-methoxypyridin-2-yl)-2,2′-dimethyl-[1,1′-biphenyl]-3-yl)-[1,2,4]triazolo[4,3-ai]pyridin-3-yl)benzyl)amino)ethan-1-ol]"
18,≤ 10 nM,"COc1cc(-c2cccc(-c3cccc(-c4ccn5c(-c6ccc(CNCCO)cc6)nnc5c4)c3C)c2C)ccc1CNCCO [Example 78, 2-((4-(7-(4″-(((2-hydroxyethyl)amino)methyl)-3″-methoxy-2,2′-dimethyl-[1,1′:3′,1″-terphenyl]-3-yl)-[1,2,4]triazolo[4,3-α]pyridin-3-yl)benzyl)amino)ethan-1-ol]"
19,≤ 10 nM,"Cc1c(Nc2nccc3cc(CN4CC[C@@H](O)C4)cnc23)cccc1-c1cccc(-c2ccn3c(-c4ccc(CNC[C@@H]5CCC(=O)N5)cc4)nnc3c2)c1C [Example 79, (S)-5-(((4-(7-(3′-((3-(((R)-3-hydroxypyrrolidin-1-yl)methyl)-1,7-naphthyridin-8-yl)amino)-2,2′-dimethyl-[1,1′-biphenyl]-3-yl)-[1,2,4]triazolo[4,3-a]pyridin-3-yl)benzyl)amino)methyl)pyrrolidin-2-one]"
20,≤ 10 nM,"Cc1c(Nc2nccc3cc(CN4CC[C@@H](O)C4)cnc23)cccc1-c1cccc(-c2ccn3c(-c4ccc(CN5CCC[C@@H]5C(=O)O)cc4)nnc3c2)c1C [Example 80, (4-(7-(3′-((3-(((R)-3-hydroxypyrrolidin-1-yl)methyl)-1,7-naphthyridin-8-yl)amino)-2,2′-dimethyl-[1,1′-biphenyl]-3-yl)-[1,2,4]triazolo[4,3-α]pyridin-3-yl)benzyl)-D-proline]"
21,≤ 10 nM,"Cc1c(Nc2nccc3cc(CN4CC[C@@H](O)C4)cnc23)cccc1-c1cccc(-c2ccn3c(-c4ccc(CNCCO)cc4)nnc3c2)c1C [Example 81, (R)-1-((8-((3′-(3-(4-(((2-hydroxyethyl)amino)methyl)phenyl)-[1,2,4]triazolo[4,3-α]pyridin-7-yl)-2,2′-dimethyl-[1,1′-biphenyl]-3-yl)amino)-1,7-naphthyridin-3-yl)methyl)pyrrolidin-3-ol]"
